Assay results: US20100240754A1, “UNSATURATED FATTY AMINO ACID DERIVATIVES AND USE THEREOF IN DERMAL COSMETOLOGY” (Pierre Fabre Demo-Cosmetique, priority 2007, published 2010)

Experiments:
Assay type in all cases: cell-based, murine
fibroblast line L929 = assay: Test of TBARS: lipid peroxidation after H2O2-Fe2+/Fe3+ stress; settings: 400 μg/mL
[1] = tested on: fibroblast cell line L929; assay: In vitro assay of intracellular OASes (H2DCF-DA probe) after H2O2/iron oxidative stress; settings: dose 400 μg/mL; L929, H2O2/iron stress
Source text: We have set up a model for an in vitro study of oxidative stress induced by H2O2/iron, H2O2 which massively generates intracellular OASes by a chain reaction triggered by the oxidation of membrane lipids.
This technique is based on the use of a fluorescent probe, 6-carboxy-2′, 7′ dichlorodihydrofluorescein diacetate, di(acetoxymethyl ester) (H2DCF-DA), which, once it has penetrated the cell, is deacetylated by the intracellular esterases then forming H2DCF. This product is oxidized by intracellular OASes into a highly fluorescent compound: 2′,7′-dichlorofluorescein, (DCF) (Suematsu M et al, 1996, Free Radicals Practical Approach, Punchard ed. P83-99).
Cutaneous murine fibroblast cell line L929.
The tested concentrations are non-cytotoxic concentrations. Cytoxicity was evaluated by the neutral red method, after incubation of the product for 3 hours.
The reference anti-radical product is vitamin E or α-tocopherol (MW: 430.7) (SIGMA, ref.: T-1539).
The mother solution is prepared at 400 mg/mL in DMSO and stored at −20° C. The pretreatment solution is prepared extemporaneously at 400 μg/mL in a culture medium without FCS.
For evaluating unsaturated fatty amino acid derivatives, the dilutions are prepared in the culture medium extemporaneously for a range of concentrations of 0.02, 0.2, 2 and 20 ng/mL.
The cells of the fibroblast line L929 are sown in microplates with 96 wells with a flat bottom in 100 μL of DMEM supplemented with 10% of FCS, and they are then incubated overnight at 37° C. in a humid atmosphere with 5% CO2.
The dilutions of the products to be tested and of the reference molecule are conducted in culture mediums without FCS, and then deposited in 7 wells in an amount of 100 μL per well.
The cells are then incubated for 3 hours at 37° C. in a humid atmosphere with 5% CO2.
The cells are rinsed with PBS 1× in an amount of 100 μL per well. Next they are set to incubate for 30 min at 37° C. in a humid atmosphere with 5% CO2 and with 50 μL of H2DCF-DA probe at 5 μM.
After 30 min in contact with the probe alone, the cells are incubated for 30 min at 37° C. in a humid atmosphere with […] with addition of 25 μL of H2O2 at 800 μM and 25 μL of 8 mM ferrous and ferric iron solution, in order to have final concentrations of 200 μM of H2O2 and 2 mM of ferrous and ferric iron.
The cells are then rinsed with PBS 1× in an amount of 100 μL per well, and then incubated for 30 min at 37° C. in a humid atmosphere with 5% CO2 and with 100 μL of PBS 1×.
These 1 h 30 minutes of incubation at 37° C. allow the intracellular esterases to deacetylate the H2DCF probe, oxidizable by intracellular OASes into DCF; a fluorescent compound, the formation of which is proportional to the amount of intracellular OASes.
The fluorescence intensity is read with the cytofluorimeter at λexcitation=485 nm and λemission=530 nm. It reflects the amount of produced intracellular OASes.
With the below ratio, it is possible to calculate for each concentration of tested product the % of protection against production of intracellular OASes (since the fluorescence intensity or FI expresses intracellular release of OASes).
The values indicated in Table 3 are percentages of inhibition of intracellular OAS production following an exogenous oxidative stress, relatively to <> cells (100%) and to <> cells (0%).

B16-F10 line = assay: Synthesis of melanin, colorimetric assay, basal and after alpha MSH stimulation; settings: Mus musculus, alpha MSH-stimulated B16-F10, read-out: inhibition of melanogenesis
Method: 6.1) The modulating effect of unsaturated fatty amino-acid derivatives on melanogenesis was analyzed. For this, a measurement of the synthesis of melanin by a colorimetric assay is carried out on a cell line of murine melanomas: the B16-F10 line.
The effect of the products is investigated in a basal situation and after stimulating melanogenesis by a MSH for determining the depigmenting power.
The level of extracellular and intracellular melanin is then measured by spectrophotometry at a wave length of 405 nm according to the procedure (Meun, Y. J. et al.). The amount of pigment is determined by a standard range of melanin and by analysis on the Microwin software package (Berthold Biotechnologies). An assay of total proteins is conducted for samples of intracellular melanin by the BCA-Copper method at 540 nm. The standard range is produced with a standard protein, BSA (Bovine Albumin Serum).

With Cc1c(C)c2c(c(C)c1O)CC[C@@](C)(CCC[C@H](C)CCC[C@H](C)CCCC(C)C)O2 [Vitamin E, α-tocopherol, reference compound] the “protection against lipid peroxidation, in words” value (fibroblast line L929) was “very effectively protects cell membranes” and the “percentage of inhibition of intracellular OAS production (protection)” value [1] was 31%.
Compound Oc1ccc(O)cc1 [hydroquinone, reference compound] has an inhibition at 1 µg/mL (B16-F10 line; 1 μg/mL) of roughly 60%.
O=C1O[C@H]([C@@H](O)CO)C(O)=C1O [vitamin C, reference compound] showed an inhibition at 40 µg/mL (B16-F10 line; 40 μg/mL) of roughly 60%.
